Results as given in US20250161338A1, “Compounds for Anti-aging Intervention” (AGENCY FOR SCIENCE, TECHNOLOGY AND RESEARCH, priority 2022, published 2025).
Where a name gives a salt, the structure may show the parent alone.

Tests used:
[1] = test system: prototrophic yeast strain (CEN.PK113-7D); assay: Propidium iodide fluorescence-based CLS method in yeast (incl. high-throughput screening); assay type: cell-based, Saccharomyces cerevisiae; conditions: for Yeast CLS increase: Yes/No call of the screen;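 for PI intensity: untreated reference is eight DMSO and water control wells per plate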
Description: Yeast strain was recovered from frozen glycerol stock at 30° C. on YPD agar medium. Yeast was left to propagate in SD medium overnight at 30° C. with shaking at 220 revolutions per minute (rpm). Cells propagated overnight were diluted to a starting optical density at 600 nm (OD600) of approximately 0.2 in fresh SD medium to begin the chronological lifespan (CLS) experiments.
(§1) CLS experiments were performed in 96-well plates with 200 μL yeast culture. Cellular inoculums were transferred into 96-well plates containing serially double-diluted concentrations (0 to 10 nM) of rapamycin. Cellular inoculum was transferred into 96-well plates containing serially double-diluted concentrations (0 to 8 mM) of 2,5-anhydro-D-mannitol, D-fructose, D-mannitol, D-maltose, and D-sorbitol in SD medium. Cells were incubated at 30° C., and the growth was measured at different time points. […] Cell survival was quantified at various age time points by three different approaches: (i) PI fluorescence-based method, (ii) outgrowth in YPD liquid medium, and (iii) spotting assay (FIG. 1).
Yeast cells (40 μL) from different age time points were transferred into a second 96-well plate (different to the 96-well plate in which the CLS analysis as outlined above was performed). Cells were washed and incubated in 100 μL 1×phosphate buffered saline (PBS) with propidium iodide (PI) (5 μg/mL) for 15 minutes in the dark. Positive and negative control samples were included for quantitative analysis. Positive control (cells boiled at 100° C. for 15 minutes) was PI-stained and processed in the same 96-well plate. Samples without PI-stained cells served as the negative control. After incubation, cells were washed and resuspended in 100 μL PBS. The fluorescence reading of the samples (excitation and emission wavelengths at 535 nm and 617 nm, respectively) and OD600 were measured with a microplate reader (BioTek, Winooski, Vermont, United States). The fluorescence intensity of each sample was normalized with OD600. The background fluorescence signal of the unstained negative sample was subtracted from the normalized fluorescence intensity of each sample. The obtained fluorescence intensity of the positive control (boiled dead cells) was considered 0% cell survival. Cell death was validated by allowing the boiled dead cells to grow in medium. Cell survival at different age time points of samples were calculated by normalizing the fluorescence intensity with positive control sample (boiled cells).
High-throughput screening of various chemicals was tested using the same protocol for the propidium iodide fluorescence-based method as described above. The prototrophic yeast strain (CEN.PK113-7D) was grown in the synthetic defined medium with different chemical reagents at their respective single testing concentration (Table 1) in addition to eight replicates of DMSO and water controls in 96-well plates at 30° C.

[2] = test system: prototrophic yeast strain (CEN.PK113-7D); assay: Yeast outgrowth in YPD liquid medium (CLS of aged cells); assay type: cell-based, Saccharomyces cerevisiae; conditions: age point day 14
Description: as §1
Outgrowth (OD600) of aged cells was measured by the microplate reader. Quantification of cell survival for each age point was determined as relative to Day 1 (considered 100% cell survival). This quantification was performed by using the formula,
[formula] • where OutgrowthDay n refers to the OD600 nm absorbance reading recorded on a specific day, OutgrowthDay 1 refers to the OD600 nm absorbance reading recorded on the first day where 100% cell survival is assumed.
The CLS of the aged cells was further determined by the yeast outgrowth in YPD liquid medium method as described above. […] At chronological age point day 14, 3-μL of culture were transferred to a second 96-well plate containing 200 μL YPD medium.

[3] = concentration tested 100 μM, solvent DMSO or water, chronological age point Day 7 (72 h growth = Day 1), lower = more survival
[4] = concentration tested 100 μM, OD600 nm after 24 h in YPD at 30° C.

Row | Molecule | Yeast CLS increase ([1]; concentration tested 100 μM) | PI intensity [1, 3] | Outgrowth [2, 4] | Yeast CLS increase ([1]; concentration tested 30 μg/mL) | PI intensity ([1]; concentration tested 30 μg/mL, solvent water, age point Day 7) | Outgrowth ([2]; concentration tested 30 μg/mL, OD600 nm after 24 h in YPD) | PI intensity ([1]; concentration tested 100 μM, solvent DMSO or water, chronological age point Day 7 (72 h growth = Day 1), lower = more survival, (monohydrate))
1 | C[C@@H]1CC[C@@]2(OC1)O[C@H]1C[C@H]3[C@@H]4CC=C5C[C@@H](O[C@@H]6O[C@H](CO)[C@@H](O[C@@H]7O[C@H](CO)[C@@H](O)[C@H](O)[C@H]7O)[C@H](O)[C@H]6O[C@@H]6O[C@@H](C)[C@H](O)[C@@H](O)[C@H]6O)CC[C@]5(C)[C@H]4CC[C@]3(C)[C@H]1[C@@H]2C [Deltonin] | No | 62,357.6 | 0.1 | – | – | – | –
2 | Nc1nccc(=O)[nH]1 [Isocytosine] | No | 68,813.6 | 0.1 | – | – | – | –
3 | C=C1[C@H](OC(=O)c2ccccc2)C[C@H]2[C@@H](/C=C(\C)C(=O)[C@@]3(OC(C)=O)C[C@H](C)[C@H](OC(=O)c4ccccc4)[C@@H]3[C@H]1OC(C)=O)C2(C)C [Euphorbia Factor L2] | No | 68,871.8 | 0.1 | – | – | – | –
4 | Estramustine (phosphate sodium) [reference compound] | No | 77,514.0 | 0.2 | – | – | – | –
5 | O=C(/C=C/c1ccc(O)c(O)c1)O[C@@H]1C[C@](O)(C(=O)O)C[C@@H](OC(=O)/C=C/c2ccc(O)c(O)c2)[C@H]1O [Isochlorogenic acid A] | No | 63,157.7 | 0.1 | – | – | – | –
6 | Cc1ccc(C(C)C)cc2c(C)ccc1-2 [Guaiazulene] | No | 58,776.1 | 0.1 | – | – | – | –
7 | COS(=O)(=O)[O-].C[N+]1(C)CCC(=C(c2ccccc2)c2ccccc2)CC1 [Diphenmanil (methylsulfate), reference compound] | No | 78,623.4 | 0.1 | – | – | – | –
8 | Gramicidin [reference compound] | No | 79,922.3 | 0.1 | – | – | – | –
9 | COC(=O)C1=CO[C@@H](O[C@@H]2O[C@H](CO)[C@@H](O)[C@H](O)[C@H]2O)[C@H]2[C@@H]1C=C[C@@]2(O)CO [Gardenoside] | No | 65,525.5 | 0.1 | – | – | – | –
10 | Chondroitin (sulfate) | – | – | – | No | 75,572.6 | 0.1 | –
11 | COc1cc2c(c(OC)c1OC)-c1c(cc3c(c1OC)OCO3)C[C@H](C)[C@@](C)(O)C2 [Schisandrol B] | No | 80,051.7 | 0.1 | – | – | – | –
12 | Br.CCN1C[C@]2(OC(=O)c3ccccc3NC(C)=O)CC[C@H](OC)[C@@]34[C@@H]2C[C@@H]([C@@H]13)[C@@]1(O)C[C@H](OC)[C@H]2C[C@@H]4[C@]1(O)[C@H]2OC [Lappaconitine (hydrobromide)] | No | 76,000.0 | 0.1 | – | – | – | –
13 | O=C(O)c1cc(O)cc(O)c1 [3,5-Dihydroxybenzoic acid] | No | 59,369.7 | 0.1 | – | – | – | –
14 | CCCCC[C@H](O)CC(=O)CCc1ccc(O)c(OC)c1 [[6]-Gingerol] | No | 61,395.3 | 0.1 | – | – | – | –
15 | CC(C)N1CCN(c2ccc(OCC3COC(Cn4cncn4)(c4ccc(Cl)cc4Cl)O3)cc2)CC1 (centres unmarked) [Terconazole, reference compound] | No | 72,350.0 | 0.1 | – | – | – | –
16 | O=C(O)c1ccco1 [2-Furoic acid] | No | 72,748.2 | 0.1 | – | – | – | –
17 | Cl.N[C@@H](CS)C(=O)O.O [L-Cysteine (hydrochloride hydrate)] | No | 69,216.4 | 0.1 | – | – | – | –

Row | Molecule | Yeast CLS increase ([1]; concentration tested 100 μM) | PI intensity [1, 3] | Outgrowth [2, 4] | Yeast CLS increase ([1]; concentration tested 30 μg/mL) | PI intensity ([1]; concentration tested 30 μg/mL, solvent water, age point Day 7) | Outgrowth ([2]; concentration tested 30 μg/mL, OD600 nm after 24 h in YPD) | PI intensity ([1]; concentration tested 100 μM, solvent DMSO or water, chronological age point Day 7 (72 h growth = Day 1), lower = more survival, (monohydrate))
18 | O=C(O)[C@H]1CCCN1 [(R)-pyrrolidine-2-carboxylic acid] | No | 80,551.7 | 0.1 | – | – | – | –
19 | C[C@](N)(Cc1ccc(O)cc1)C(=O)O [Metyrosine, reference compound] | No | 76,947.2 | 0.1 | – | – | – | –
20 | O=C(/C=C/c1ccc(O)c(O)c1)O[C@@H]1C[C@](O)(C(=O)O)C[C@@H](O)[C@H]1O [Chlorogenic acid] | No | 66,593.5 | 0.1 | – | – | – | –
21 | CN[C@@H]1C[C@H]2O[C@@](C)([C@@H]1OC)n1c3ccccc3c3c4c(c5c6ccccc6n2c5c31)C(=O)NC4 [Staurosporine] | No | 67,250.9 | 0.1 | – | – | – | –
22 | Nc1c(Br)cc(Br)cc1CN[C@H]1CC[C@H](O)CC1 [Ambroxol (hydrochloride), reference compound] | No | 63,509.0 | 0.1 | – | – | – | –
23 | CO[C@H]1/C=C/O[C@@]2(C)Oc3c(C)c([O-])c4c(O)c(cc(O)c4c3C2=O)NC(=O)/C(C)=C\C=C\[C@H](C)[C@H](O)[C@@H](C)[C@@H](O)[C@@H](C)[C@H](OC(C)=O)[C@@H]1C.[Na+] [Rifamycin (sodium), reference compound] | Yes | 39,446.0 | 0.6 | – | – | – | –
24 | NC=O [Formamide] | No | 64,135.2 | 0.1 | – | – | – | –
25 | CC(C)CCC[C@](C)(O)[C@H]1CC[C@H]2[C@@H]3CC=C4C[C@@H](O)CC[C@]4(C)[C@H]3CC[C@@]21C [20(S)-Hydroxycholesterol] | No | 75,450.9 | 0.1 | – | – | – | –
26 | CC(=O)O[C@H]1CC[C@H]2[C@@H]3CCc4cc(O)ccc4[C@H]3CC[C@]12C [β-Estradiol 17-acetate] | Yes | 34,621.0 | 0.5 | – | – | – | –
27 | CN(C)c1ccc(O)c2c1C[C@H]1C[C@H]3[C@H](N(C)C)C(O)=C(C(N)=O)C(=O)[C@@]3(O)C(O)=C1C2=O [Minocycline (hydrochloride), reference compound] | – | 71,078.2 | 0.1 | – | – | – | –
28 | CC(CCC(=O)NCC(=O)O)C1CCC2C3CCC4CC(O)CCC4(C)C3CC(O)C12C (centres unmarked) [Glycodeoxycholic acid (monohydrate)] | No | – | 0.1 | – | – | – | 73,459.3
29 | Schisantherin B | No | 68,765.7 | 0.1 | – | – | – | –
30 | Cc1cc2nc3c(=O)[nH]c(=O)nc-3n(C[C@H](O)[C@H](O)[C@H](O)COP(=O)(O)OP(=O)(O)OC[C@H]3O[C@@H](n4cnc5c(N)ncnc54)[C@H](O)[C@@H]3O)c2cc1C [Flavin adenine dinucleotide (disodium salt)] | No | 59,508.7 | 0.2 | – | – | – | –
31 | CO/N=C(\C(=O)N[C@@H]1C(=O)N2C(C(=O)O)=C(Cn3ccc(=N)n3CCO)CS[C@H]12)c1csc(N)n1.O=S(=O)(O)O [Cefoselis (sulfate), reference compound] | No | 70,425.6 | 0.1 | – | – | – | –
32 | C[C@@H](O)[C@H]1C(=O)N2C(C(=O)[O-])=C(SC3Cn4cnc[n+]4C3)[C@H](C)[C@H]12 (some centres unmarked) [Biapenem, reference compound] | No | 71,409.3 | 0.1 | – | – | – | –
33 | Aprotinin | No | 70,144.6 | 0.1 | – | – | – | –
34 | O=C(O)CCCCCCCCCCCC(=O)O [Tridecanedioic acid] | No | 80,407.7 | 0.1 | – | – | – | –
